“And” between values parts separate entries of the source, which are not always exact repeats. Identical values can stand only once. Counter-ions that a name gives are not always drawn.
molecular target: S. aureus GyrB ATPase (Staphylococcus aureus, UniProt P0A0K8); test: biochemical; details: compound at 1 μM; one value per test if tested more than once; 1 µM
Summary of the method: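 IC50 values derive from 10-point titrations of compound (in DMSO). Phosphate formed from 250 μM ATP was quantified by acidic molybdate/malachite green after quenching.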

S. aureus GyrB ATPase, sequence (P0A0K8 whole entry): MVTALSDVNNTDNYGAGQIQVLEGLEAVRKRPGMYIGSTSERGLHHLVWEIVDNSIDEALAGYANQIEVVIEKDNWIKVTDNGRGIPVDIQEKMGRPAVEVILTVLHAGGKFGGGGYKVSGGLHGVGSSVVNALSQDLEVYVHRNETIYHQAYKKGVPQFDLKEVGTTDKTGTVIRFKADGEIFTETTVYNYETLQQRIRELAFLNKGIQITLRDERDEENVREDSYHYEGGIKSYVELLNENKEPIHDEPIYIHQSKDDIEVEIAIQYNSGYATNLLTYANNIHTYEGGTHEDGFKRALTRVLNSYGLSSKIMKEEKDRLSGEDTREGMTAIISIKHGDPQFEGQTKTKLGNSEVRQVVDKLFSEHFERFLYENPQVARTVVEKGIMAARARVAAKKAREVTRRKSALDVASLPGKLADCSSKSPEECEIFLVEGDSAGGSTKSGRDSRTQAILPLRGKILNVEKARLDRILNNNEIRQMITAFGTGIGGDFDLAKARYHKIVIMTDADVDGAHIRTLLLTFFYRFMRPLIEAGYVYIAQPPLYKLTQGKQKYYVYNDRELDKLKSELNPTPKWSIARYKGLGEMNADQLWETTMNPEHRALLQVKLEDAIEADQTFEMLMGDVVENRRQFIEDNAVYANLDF
S. aureus GyrB ATPase, sequence (P0AES4 whole entry, further chain): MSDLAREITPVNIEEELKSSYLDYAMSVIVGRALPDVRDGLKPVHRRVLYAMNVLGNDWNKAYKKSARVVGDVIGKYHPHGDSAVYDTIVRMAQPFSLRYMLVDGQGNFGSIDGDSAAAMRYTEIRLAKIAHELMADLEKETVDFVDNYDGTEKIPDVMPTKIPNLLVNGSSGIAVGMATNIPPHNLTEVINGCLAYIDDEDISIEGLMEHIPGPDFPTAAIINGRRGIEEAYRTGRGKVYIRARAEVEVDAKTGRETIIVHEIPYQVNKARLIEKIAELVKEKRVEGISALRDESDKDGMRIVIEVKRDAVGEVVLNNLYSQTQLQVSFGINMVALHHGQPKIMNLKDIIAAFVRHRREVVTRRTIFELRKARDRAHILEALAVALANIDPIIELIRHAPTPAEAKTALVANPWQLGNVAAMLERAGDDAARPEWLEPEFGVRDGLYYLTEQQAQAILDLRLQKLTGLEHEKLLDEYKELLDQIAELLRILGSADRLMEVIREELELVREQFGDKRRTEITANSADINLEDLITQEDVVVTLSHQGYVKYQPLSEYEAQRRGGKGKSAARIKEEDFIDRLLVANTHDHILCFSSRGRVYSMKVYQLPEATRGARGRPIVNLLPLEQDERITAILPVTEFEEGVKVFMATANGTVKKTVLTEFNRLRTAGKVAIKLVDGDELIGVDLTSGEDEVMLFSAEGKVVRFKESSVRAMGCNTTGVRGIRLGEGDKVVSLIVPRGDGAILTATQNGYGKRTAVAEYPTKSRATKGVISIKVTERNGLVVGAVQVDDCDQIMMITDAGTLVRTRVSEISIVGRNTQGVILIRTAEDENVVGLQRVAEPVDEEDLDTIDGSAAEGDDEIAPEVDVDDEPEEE

Q: How did the “% Inhibition of S. aureus GyrB ATPase” value turn out when `CCNC(=O)Nc1cc(-c2nc(C(F)(F)F)cs2)c(-c2ccc3c(c2)c(=O)c(C(=O)O)cn3CC2COCCN2)cn1` (centres unmarked) [Example 294] was run?
A: 109%

Q: `CCNC(=O)Nc1cc(-c2nc(C(F)(F)F)cs2)c(-c2ccc3c(c2)c(=O)c(C(=O)O)cn3CC2CCN(CCN3CCOCC3)C2)cn1` (centres unmarked) [Example 306, 6-(6-(3-ethylureido)-4-(4-(trifluoromethyl)thiazol-2-yl)pyridin-3-yl)-1-((1-(2-morpholinoethyl)pyrrolidin-3-yl)methyl)-4-oxo-1,4-dihydroquinoline-3-carboxylic acid] was tested. Which “% Inhibition of S. aureus GyrB ATPase” value did it give?
A: 100% and 102%

same assay, conditions: compound at 1 μM; one value per test if tested more than once; read-out: % Inhibition of S. aureus GyrB ATPase

Q: For `CCNC(=O)Nc1cc(-c2nc(C(F)(F)F)cs2)c(-c2ccc3c(c2)c(=O)c(C(=O)O)cn3[C@H]2CCCN(CCS(C)(=O)=O)C2)cn1` [Example 280, (S)-ethyl 6-(6-(3-ethylureido)-4-(4-(trifluoromethyl)thiazol-2-yl)pyridin-3-yl)-1-(1-(2-(methylsulfonyl)ethyl)piperidin-3-yl)-4-oxo-1,4-dihydroquinoline-3-carboxylic acid], which inhibition at 1 µM is on record?
A: 103%

Q: With `CCNC(=O)Nc1cc(-c2nc(C(F)(F)F)cs2)c(-c2ccc3c(c2)c(=O)c(C(=O)O)cn3[C@@H]2CCCN(CCS(C)(=O)=O)C2)cn1` [Example 281, (R)-ethyl 6-(6-(3-ethylureido)-4-(4-(trifluoromethyl)thiazol-2-yl)pyridin-3-yl)-1-(1-(2-(methylsulfonyl)ethyl)piperidin-3-yl)-4-oxo-1,4-dihydroquinoline-3-carboxylic acid] as the molecule, how does the inhibition at 1 µM read?
A: 106%

Q: `CCNC(=O)Nc1cc(-c2nc(C(F)(F)F)cs2)c(-c2ccc3c(c2)c(=O)c(C(=O)O)cn3[C@@H]2CCCN(Cc3cccn3C)C2)cn1` [Example 282, (R)-ethyl 6-(6-(3-ethylureido)-4-(4-(trifluoromethyl)thiazol-2-yl)pyridin-3-yl)-1-(1-((1-methyl-1H-pyrrol-2-yl)methyl)piperidin-3-yl)-4-oxo-1,4-dihydroquinoline-3-carboxylic acid] was tested. Which inhibition at 1 µM did it give?
A: 105%

Q: With `CCNC(=O)Nc1cc(-c2nc(C(F)(F)F)cs2)c(-c2ccc3c(c2)c(=O)c(C(=O)O)cn3[C@H]2CCCN(Cc3cccn3C)C2)cn1` [Example 283, (S)-ethyl 6-(6-(3-ethylureido)-4-(4-(trifluoromethyl)thiazol-2-yl)pyridin-3-yl)-1-(1-((1-methyl-1H-pyrrol-2-yl)methyl)piperidin-3-yl)-4-oxo-1,4-dihydroquinoline-3-carboxylic acid] as the molecule, how does the inhibition at 1 µM read?
A: 102%

Q: How did the inhibition at 1 µM turn out when `CCNC(=O)Nc1cc(-c2nc(C(F)(F)F)cs2)c(-c2ccc3c(c2)c(=O)c(C(=O)O)cn3[C@H]2CCCN(CCN3CCOCC3)C2)cn1` [Example 284, (S)-ethyl 6-(6-(3-ethylureido)-4-(4-(trifluoromethyl)thiazol-2-yl)pyridin-3-yl)-1-(1-(2-morpholinoethyl)piperidin-3-yl)-4-oxo-1,4-dihydroquinoline-3-carboxylic acid] was run?
A: 107%

Q: For `CCNC(=O)Nc1cc(-c2nc(C(F)(F)F)cs2)c(-c2ccc3c(c2)c(=O)c(C(=O)O)cn3[C@@H]2CCCN(CCN3CCOCC3)C2)cn1` [Example 285, (R)-ethyl 6-(6-(3-ethylureido)-4-(4-(trifluoromethyl)thiazol-2-yl)pyridin-3-yl)-1-(1-(2-morpholinoethyl)piperidin-3-yl)-4-oxo-1,4-dihydroquinoline-3-carboxylic acid], which inhibition at 1 µM is on record?
A: 105%

Q: For `CCNC(=O)Nc1cc(-c2nc(C(F)(F)F)cs2)c(-c2ccc3c(c2)c(=O)c(C(=O)O)cn3[C@@H]2CCCN(CC(C)(C)C)C2)cn1` [Example 286], which inhibition at 1 µM is on record?
A: 102%

Q: How did the inhibition at 1 µM turn out when `CCNC(=O)Nc1cc(-c2nc(C(F)(F)F)cs2)c(-c2ccc3c(c2)c(=O)c(C(=O)O)cn3[C@H]2CCCN(CCN(CC)CC)C2)cn1` [Example 287, (S)-ethyl 1-(1-(2-(diethylamino)ethyl)piperidin-3-yl)-6-(6-(3-ethylureido)-4-(4-(trifluoromethyl)thiazol-2-yl)pyridin-3-yl)-4-oxo-1,4-dihydroquinoline-3-carboxylic acid trifluoroacetate] was run?
A: 100%

Q: Which inhibition at 1 µM does the source give for `CCNC(=O)Nc1cc(-c2nc(C(F)(F)F)cs2)c(-c2ccc3c(c2)c(=O)c(C(=O)O)cn3[C@@H]2CCCN(CCN(CC)CC)C2)cn1` [Example 288, (S)-ethyl 1-(1-(2-(diethylamino)ethyl)piperidin-3-yl)-6-(6-(3-ethylureido)-4-(4-(trifluoromethyl)thiazol-2-yl)pyridin-3-yl)-4-oxo-1,4-dihydroquinoline-3-carboxylic acid trifluoroacetate] here?
A: 99%

Q: Which inhibition at 1 µM does the source give for `CCNC(=O)Nc1cc(-c2nc(C(F)(F)F)cs2)c(-c2ccc3c(c2)c(=O)c(C(=O)O)cn3[C@H]2CCCN(CC(C)(C)CN3CCOCC3)C2)cn1` [Example 289, (S)-1-(1-(2,2-dimethyl-3-morpholinopropyl)piperidin-3-yl)-6-(6-(3-ethylureido)-4-(4-(trifluoromethyl)thiazol-2-yl)pyridin-3-yl)-4-oxo-1,4-dihydroquinoline-3-carboxylic acid] here?
A: 103%

Q: With `CCNC(=O)Nc1cc(-c2nc(C(F)(F)F)cs2)c(-c2ccc3c(c2)c(=O)c(C(=O)O)cn3[C@@H]2CCCN(CC(C)(C)CN3CCOCC3)C2)cn1` [Example 290, (R)-1-(1-(2,2-dimethyl-3-morpholinopropyl)piperidin-3-yl)-6-(6-(3-ethylureido)-4-(4-(trifluoromethyl)thiazol-2-yl)pyridin-3-yl)-4-oxo-1,4-dihydroquinoline-3-carboxylic acid] as the molecule, how does the inhibition at 1 µM read?
A: 100%

Q: With `CCNC(=O)Nc1cc(-c2nc(C(F)(F)F)cs2)c(-c2ccc3c(c2)c(=O)c(C(=O)O)cn3[C@H]2CCCN(CCO)C2)cn1` [Example 291, (S)-6-(6-(3-ethylureido)-4-(4-(trifluoromethyl)thiazol-2-yl)pyridin-3-yl)-1-(1-(2-hydroxyethyl)piperidin-3-yl)-4-oxo-1,4-dihydroquinoline-3-carboxylic acid] as the molecule, how does the inhibition at 1 µM read?
A: 107%

Q: With `CCNC(=O)Nc1cc(-c2nc(C(F)(F)F)cs2)c(-c2ccc3c(c2)c(=O)c(C(=O)O)cn3[C@@H]2CCCN(CCO)C2)cn1` [Example 292, (R)-6-(6-(3-ethylureido)-4-(4-(trifluoromethyl)thiazol-2-yl)pyridin-3-yl)-1-(1-(2-hydroxyethyl)piperidin-3-yl)-4-oxo-1,4-dihydroquinoline-3-carboxylic acid] as the molecule, how does the inhibition at 1 µM read?
A: 102%

Q: How did the inhibition at 1 µM turn out when `CCNC(=O)Nc1cc(-c2nc(C(F)(F)F)cs2)c(-c2ccc3c(c2)c(=O)c(C(=O)O)cn3CC2COCCN2)cn1` (centres unmarked) [Example 293] was run?
A: 106%

Q: `CCNC(=O)Nc1cc(-c2nc(C(F)(F)F)cs2)c(-c2ccc3c(c2)c(=O)c(C(=O)O)cn3CC2CCN(CC)C2)cn1` (centres unmarked) [Example 305, 1-((1-ethylpyrrolidin-3-yl)methyl)-6-(6-(3-ethylureido)-4-(4-(trifluoromethyl)thiazol-2-yl)pyridin-3-yl)-4-oxo-1,4-dihydroquinoline-3-carboxylic acid] was tested. Which inhibition at 1 µM did it give?
A: 103%

Q: With `CCNC(=O)Nc1cc(-c2nc(C(F)(F)F)cs2)c(-c2ccc3c(c2)c(=O)c(C(=O)O)cn3CC2CCN(CCN3CCOCC3)C2)cn1` (centres unmarked) [Example 306, 6-(6-(3-ethylureido)-4-(4-(trifluoromethyl)thiazol-2-yl)pyridin-3-yl)-1-((1-(2-morpholinoethyl)pyrrolidin-3-yl)methyl)-4-oxo-1,4-dihydroquinoline-3-carboxylic acid] as the molecule, how does the inhibition at 1 µM read?
A: 105%

Q: Which inhibition at 1 µM does the source give for `CCNC(=O)Nc1cc(-c2nc(C(F)(F)F)cs2)c(-c2ccc3c(c2)c(=O)c(C(=O)O)cn3CC2CCN(CC3CCCO3)C2)cn1` (centres unmarked) [Example 307, 6-(6-(3-ethylureido)-4-(4-(trifluoromethyl)thiazol-2-yl)pyridin-3-yl)-4-oxo-1-((1-((tetrahydrofuran-2-yl)methyl)pyrrolidin-3-yl)methyl)-1,4-dihydroquinoline-3-carboxylic acid] here?
A: 105%

Q: `CCNC(=O)Nc1cc(-c2nc(C(F)(F)F)cs2)c(-c2ccc3c(c2)c(=O)c(C(=O)O)cn3CC2CCN(CCO)C2)cn1` (centres unmarked) [Example 308, 6-(6-(3-ethylureido)-4-(4-(trifluoromethyl)thiazol-2-yl)pyridin-3-yl)-1-((1-(2-hydroxyethyl)pyrrolidin-3-yl)methyl)-4-oxo-1,4-dihydroquinoline-3-carboxylic acid hydrochloride] was tested. Which inhibition at 1 µM did it give?
A: 111%

Q: With `CCNC(=O)Nc1cc(-c2nc(C(F)(F)F)cs2)c(-c2ccc3c(c2)c(=O)c(C(=O)O)cn3C2CCCN(Cc3ccncc3)C2)cn1` (centres unmarked) [Example 309, 6-(6-(3-ethylureido)-4-(4-(trifluoromethyl)thiazol-2-yl)pyridin-3-yl)-4-oxo-1-(1-(pyridin-4-ylmethyl)piperidin-3-yl)-1,4-dihydroquinoline-3-carboxylic acid] as the molecule, how does the inhibition at 1 µM read?
A: 109%

Q: With `CCNC(=O)Nc1cc(-c2nc(C(F)(F)F)cs2)c(-c2ccc3c(c2)c(=O)c(C(=O)O)cn3C2CCCN(C)C2)cn1` (centres unmarked) [Example 311, 6-(6-(3-ethylureido)-4-(4-(trifluoromethyl)thiazol-2-yl)pyridin-3-yl)-1-(1-methylpiperidin-3-yl)-4-oxo-1,4-dihydroquinoline-3-carboxylic acid] as the molecule, how does the inhibition at 1 µM read?
A: 100%

Q: For `CCNC(=O)Nc1cc(-c2nc(C(F)(F)F)cs2)c(-c2ccc3c(c2)c(=O)c(C(=O)O)cn3[C@H]2CCN(C)C2)cn1` [Example 312, (S)-6-(6-(3-ethylureido)-4-(4-(trifluoromethyl)thiazol-2-yl)pyridin-3-yl)-1-(1-methylpyrrolidin-3-yl)-4-oxo-1,4-dihydroquinoline-3-carboxylic acid], which inhibition at 1 µM is on record?
A: 105%

Q: How did the inhibition at 1 µM turn out when `CCNC(=O)Nc1cc(-c2nc(C(F)(F)F)cs2)c(-c2ccc3c(c2)c(=O)c(C(=O)O)cn3CC2CCCN(C)C2)cn1` (centres unmarked) [Example 313, 6-(6-(3-ethylureido)-4-(4-(trifluoromethyl)thiazol-2-yl)pyridin-3-yl)-1-((1-methylpiperidin-3-yl)methyl)-4-oxo-1,4-dihydroquinoline-3-carboxylic acid] was run?
A: 103%

Q: How did the inhibition at 1 µM turn out when `CCNC(=O)Nc1cc(-c2nc(C(F)(F)F)cs2)c(-c2ccc3c(c2)c(=O)c(C(=O)O)cn3[C@H]2CCCC[C@@H]2N)cn1` [Example 314, 1-((1S,2S)-2-aminocyclohexyl)-6-(6-(3-ethylureido)-4-(4-(trifluoromethyl)thiazol-2-yl)pyridin-3-yl)-4-oxo-1,4-dihydroquinoline-3-carboxylic acid] was run?
A: 114%

Q: For `CCNC(=O)Nc1cc(-c2nc(C(F)(F)F)cs2)c(-c2ccc3c(c2)c(=O)c(C(=O)O)cn3CCCO)cn1` [Example 320, 6-(6-(3-Ethylureido)-4-(4-(trifluoromethyl)thiazol-2-yl)pyridin-3-yl)-1-(3-hydroxy-propyl)-4-oxo-1,4-dihydro-quinoline-3-carboxylic acid], which inhibition at 1 µM is on record?
A: 98%
